{
  "source": "patent US20100267561A1",
  "about": "“HERBICIDAL PYRIDAZINONE DERIVATIVES” (priority 2007, published 2010)",
  "experiment_in_all_cases": "Test B pre-/postemergence plant response",
  "assay_type_in_all_cases": "in vivo",
  "conditions_in_all_cases": "Preemergence",
  "key": {"wild oat (Avena fatua)": {"system": "wild oat (Avena fatua)", "procedure,_shortened": "(§1)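 Visual scoring from 0 (no effect) to 100 (complete control) against untreated controls was done 13 to 15 days after greenhouse treatment. Chemicals were formulated in a surfactant-containing non-phytotoxic solvent and applied to soil preemergence or to 1- to 4-leaf (2-18 cm) plants postemergence.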"}, "[1]": {"system": "common ragweed (Ambrosia elation)", "procedure,_shortened": "as §1"}, "[2]": {"system": "large crabgrass (Digitaria sanguinalis)", "procedure,_shortened": "as §1"}, "[3]": {"system": "pigweed (Amaranthus retroflexus)", "procedure,_shortened": "as §1"}, "[4]": {"system": "catchweed bedstraw (Galium aparine)", "procedure,_shortened": "as §1"}, "[5]": {"system": "green foxtail (Setaria viridis)", "procedure,_shortened": "as §1"}, "[6]": {"system": "velvetleaf (Abutilon theophrasti)", "procedure,_shortened": "as §1"}, "corn (Zea mays)": {"system": "corn (Zea mays)", "procedure,_shortened": "as §1"}, "[7]": {"system": "yellow nutsedge (Cyperus esculentus)", "procedure,_shortened": "as §1"}, "[8]": {"system": "cocklebur (Xanthium strumarium)", "procedure,_shortened": "as §1"}, "[9]": {"system": "woolly cupgrass (Eriochloa villosa)", "procedure,_shortened": "as §1"}, "[10]": {"system": "lambsquarters (Chenopodium album)", "procedure,_shortened": "as §1"}, "[11]": {"system": "blackgrass (Alopecurus myosuroides)", "procedure,_shortened": "as §1"}, "[12]": {"conditions": "16 g ai/ha, scale 0 to 100 (0 no effect, 100 complete control)"}, "[13]": {"conditions": "31 g ai/ha, scale 0 to 100 (0 no effect, 100 complete control)"}, "[14]": {"conditions": "31 g ai/ha, 0 to 100 scale, 0 no effect, 100 complete control"}},
  "data": [
    {"compound": "Cc1ccc(-c2ccc(Cl)cc2)cc1-c1c(O)cnn(C)c1=O", "note": "[Compound 46]", "values": [
      {"measurement": "Plant response rating, Oat, Wild", "setting": "wild oat (Avena fatua); [12]", "result": 0},
      {"measurement": "Plant response rating, Oat, Wild", "setting": "wild oat (Avena fatua); [13]", "result": 0},
      {"measurement": "Plant response rating, Oat, Wild", "setting": "wild oat (Avena fatua); 62 g ai/ha, scale 0 to 100", "result": 35},
      {"measurement": "Oat, Wild plant response rating", "setting": "wild oat (Avena fatua); 8 g ai/ha, scale 0 to 100", "result": 0},
      {"measurement": "Plant response rating, Ragweed", "setting": "[1]; [12]", "result": 0},
      {"measurement": "Plant response rating, Ragweed", "setting": "[1]; [13]", "result": 0},
      {"measurement": "Plant response rating, Ragweed", "setting": "[1]; 62 g ai/ha, scale 0 to 100", "result": 0},
      {"measurement": "Ragweed plant response rating", "setting": "[1]; 8 g ai/ha, scale 0 to 100", "result": 0},
      {"measurement": "Plant response rating, Crabgrass, Large", "setting": "[2]; [12]", "result": 0},
      {"measurement": "Plant response rating, Crabgrass, Large", "setting": "[2]; [14]", "result": 60},
      {"measurement": "Plant response rating, Crabgrass, Large", "setting": "[2]; 62 g ai/ha, scale 0 to 100", "result": 100},
      {"measurement": "Crabgrass, Large plant response rating", "setting": "[2]; 8 g ai/ha, scale 0 to 100", "result": 0},
      {"measurement": "Plant response rating, Pigweed", "setting": "[3]; [12]", "result": 0},
      {"measurement": "Plant response rating, Pigweed", "setting": "[3]; [13]", "result": 60},
      {"measurement": "Plant response rating, Pigweed", "setting": "[3]; 62 g ai/ha, scale 0 to 100", "result": 100},
      {"measurement": "Pigweed plant response rating", "setting": "[3]; 8 g ai/ha, scale 0 to 100", "result": 0},
      {"measurement": "Plant response rating, Galium", "setting": "[4]; [12]", "result": 0},
      {"measurement": "Plant response rating, Galium", "setting": "[4]; [14]", "result": 0},
      {"measurement": "Plant response rating, Galium", "setting": "[4]; 62 g ai/ha, scale 0 to 100", "result": 0},
      {"measurement": "Galium plant response rating", "setting": "[4]; 8 g ai/ha, scale 0 to 100", "result": 0},
      {"measurement": "Plant response rating, Foxtail, Green", "setting": "[5]; [12]", "result": 10},
      {"measurement": "Plant response rating, Foxtail, Green", "setting": "[5]; [14]", "result": 80},
      {"measurement": "Plant response rating, Foxtail, Green", "setting": "[5]; 62 g ai/ha, scale 0 to 100", "result": 100},
      {"measurement": "Foxtail, Green plant response rating", "setting": "[5]; 8 g ai/ha, scale 0 to 100", "result": 0},
      {"measurement": "Plant response rating, Velvetleaf", "setting": "[6]; [12]", "result": 0},
      {"measurement": "Plant response rating, Velvetleaf", "setting": "[6]; [13]", "result": 0},
      {"measurement": "Plant response rating, Velvetleaf", "setting": "[6]; 62 g ai/ha, 0 to 100 scale, 0 no effect, 100 complete control", "result": 0},
      {"measurement": "Velvetleaf plant response rating", "setting": "[6]; 8 g ai/ha, scale 0 to 100", "result": 0},
      {"measurement": "Plant response rating, Corn", "setting": "corn (Zea mays); [12]", "result": 0},
      {"measurement": "Plant response rating, Corn", "setting": "corn (Zea mays); [14]", "result": 0},
      {"measurement": "Plant response rating, Corn", "setting": "corn (Zea mays); 62 g ai/ha, scale 0 to 100", "result": 0},
      {"measurement": "Corn plant response rating", "setting": "corn (Zea mays); 8 g ai/ha, scale 0 to 100", "result": 0},
      {"measurement": "Plant response rating, Nutsedge, Yellow", "setting": "[7]; [12]", "result": 0},
      {"measurement": "Plant response rating, Nutsedge, Yellow", "setting": "[7]; [13]", "result": 0},
      {"measurement": "Plant response rating, Nutsedge, Yellow", "setting": "[7]; 62 g ai/ha, scale 0 to 100", "result": 0},
      {"measurement": "Nutsedge, Yellow plant response rating", "setting": "[7]; 8 g ai/ha, scale 0 to 100", "result": 0},
      {"measurement": "Plant response rating, Cocklebur", "setting": "[8]; [12]", "result": 0},
      {"measurement": "Plant response rating, Cocklebur", "setting": "[8]; [14]", "result": 0},
      {"measurement": "Plant response rating, Cocklebur", "setting": "[8]; 62 g ai/ha, scale 0 to 100", "result": 0},
      {"measurement": "Cocklebur plant response rating", "setting": "[8]; 8 g ai/ha, scale 0 to 100", "result": 0},
      {"measurement": "Plant response rating, Cupgrass, Woolly", "setting": "[9]; [12]", "result": 0},
      {"measurement": "Plant response rating, Cupgrass, Woolly", "setting": "[9]; [14]", "result": 85},
      {"measurement": "Plant response rating, Cupgrass, Woolly", "setting": "[9]; 62 g ai/ha, scale 0 to 100", "result": 98},
      {"measurement": "Cupgrass, Woolly plant response rating", "setting": "[9]; 8 g ai/ha, scale 0 to 100", "result": 0},
      {"measurement": "Plant response rating, Lambsquarters", "setting": "[10]; [12]", "result": 0},
      {"measurement": "Plant response rating, Lambsquarters", "setting": "[10]; [14]", "result": 0},
      {"measurement": "Plant response rating, Lambsquarters", "setting": "[10]; 62 g ai/ha, scale 0 to 100", "result": 0},
      {"measurement": "Lambsquarters plant response rating", "setting": "[10]; 8 g ai/ha, scale 0 to 100", "result": 0},
      {"measurement": "Plant response rating, Blackgrass", "setting": "[11]; [12]", "result": 30},
      {"measurement": "Plant response rating, Blackgrass", "setting": "[11]; [14]", "result": 40},
      {"measurement": "Plant response rating, Blackgrass", "setting": "[11]; 62 g ai/ha, scale 0 to 100", "result": 85},
      {"measurement": "Blackgrass plant response rating", "setting": "[11]; 8 g ai/ha, scale 0 to 100", "result": 0}
    ]}
  ]
}
